Experiment [1] concerns ERα+/PR− tumors. The conditions noted are these: postmenopausal women, follow-up 6 years, compared to patients treated with tamoxifen; cited from earlier work.
For experiment [2], the system named is ERα positive breast cancer. Conditions: cited from earlier work.
For experiment [3], the system named is breast cancer. The conditions noted are these: five years adjuvant tamoxifen after primary surgery; ER positive tumors, irrespective of lymph node status; cited from earlier work.
In experiment [4] the test system is stage II primary breast carcinoma. The experiment is described as follows: Controlled, randomized adjuvant tamoxifen trial; Kaplan-Meier survival analysis by CRABP2 level on breast cancer TMA. It is filed as in vivo, human. The text has this:
Median age at diagnosis was 45 (25-57) years. Median follow-up was 13.9 years and less than 2% of the patients had received adjuvant chemotherapy. The study design is described in detail elsewhere (Rydén et al, Eur J Cancer, 2005, 41(2): 256-64). Ethical permission was obtained from the Local Ethics Committees at Lund and Linköping Universities.
All cases had been histopathologically re-evaluated on hematoxylin and eosin stained slides. TMA:s were then constructed by sampling 2×0.6 mm cores per case from areas representative of invasive cancer. The TMA:s were prepared and automated immunohistochemistry was performed as described in section 3 above, using the CRABP2 antibody prepared as described in section 2 above.
As with “staining intensity” in Examples, Section 3 above, ni was subjectively evaluated in accordance to standards used in clinical histo-pathological diagnostics and outcome was classified as: absent (O)=no immunoreactivity, weak (1)=faint immunoreactivity, moderate (2)=medium immunoreactivity or strong (3)=distinct and strong immunoreactivity. Further, as with “the fraction of stained cells” in Examples, Section 3 above, nf was classified as <2%, 2-25%, 26-75% or >75%. Two categories were defined: “CRABP2 low” corresponding to nf<=25% and ni=0-1; and “CRABP2 high” corresponding to nf>25% and/or ni=2-3 (FIG. 1). This classification of samples was used for recurrence free survival (RFS) or breast cancer specific survival ([…]) analysis according to the Kaplan-Meier estimator, and the log-rank test was used to compare survival in different strata. All statistical tests were two-sided, and p-values of <[…] were considered significant. All calculations were made with the statistical package SPSS 12.0 (SPSS Inc. Illinois, USA).

Experiment [5] has as its system ERα+/PR+ tumors. The conditions noted are these: cited from earlier work.
Experiment [6] has as its system breast cancer. The conditions noted are these: cited from earlier work.

Like-named read-outs stand apart in the source and are kept apart here.

In the case of `CC(C)(C#N)c1cc(Cn2cncn2)cc(C(C)(C)C#N)c1` [anastrozole], in experiment [1], the recurrence rate result is on record as “halved”.

On to `CC/C(=C(\c1ccccc1)c1ccc(OCCN(C)C)cc1)c1ccccc1` [tamoxifen], for which the “ERα positive patients that do not respond to treatment” value in experiment [2] is 30-40%. In addition, the breast cancer mortality entry in experiment [3] is given as “reduces the breast cancer mortality”. Also, the “recurrence free survival (RFS)” value was “improved survival” in experiment [4] (CRABP2 high tumors, irrespective of ER status, adjuvant tamoxifen 2 years vs control (FIG. 3B)); “no impact on survival” in experiment [4] (CRABP2 low tumors, irrespective of ER status, tamoxifen vs control (FIG. 3A)); “a trend towards a positive response” in experiment [4] (ERα+ and CRABP2 high, tamoxifen vs control (FIG. 4B)); “a trend towards a positive response” in experiment [4] (ERα+ and CRABP2 low, tamoxifen vs control (FIG. 4A)); “positively affected” in experiment [4] (ERα− and CRABP2 high, tamoxifen vs control (FIG. 5B)); “negatively affected” in experiment [4] (ERα− and CRABP2 low, tamoxifen vs control (FIG. 5A)). Also, the “recurrence free survival (RFS)” value in experiment [4] (ERα− and PR−, CRABP2 high, tamoxifen vs control (FIG. 11b)) is “better trend”; in experiment [4] (ERα− and PR−, CRABP2 low, tamoxifen vs control (FIG. 11a)), “worse trend”; in experiment [4] (ERα− and/or PR−, CRABP2 high, tamoxifen vs control (FIG. 9b)), “better trend”; in experiment [4] (ERα− and/or PR−, CRABP2 low, tamoxifen vs control (FIG. 9a)), “worse trend”; in experiment [4] (PR− and CRABP2 high, tamoxifen vs control (FIG. 7B)), “better survival probability trend”; in experiment [4] (PR− and CRABP2 low, tamoxifen vs control (FIG. 7A)), “negatively affected”. The “breast cancer specific survival (BCSS)” value is reported as “better trend” in experiment [4] (ERα− and CRABP2 high, tamoxifen vs control (FIG. 6B)); “worse trend” in experiment [4] (ERα− and CRABP2 low, tamoxifen vs control (FIG. 6A)); “better trend” in experiment [4] (ERα− and PR−, CRABP2 high, tamoxifen vs control (FIG. 12b)); “worse trend” in experiment [4] (ERα− and PR−, CRABP2 low, tamoxifen vs control (FIG. 12a)); “better trend” in experiment [4] (ERα− and/or PR−, CRABP2 high, tamoxifen vs control (FIG. 10b)); “worse trend” in experiment [4] (ERα− and/or PR−, CRABP2 low, tamoxifen vs control (FIG. 10a)). Moreover, the “breast cancer specific survival (BCSS)” value in experiment [4] (PR− and CRABP2 high, tamoxifen vs control (FIG. 8B)) is reported as “better trend”; in experiment [4] (PR− and CRABP2 low, tamoxifen vs control (FIG. 8A)), “worse trend”. Further, the disease free survival entry in experiment [5] (older patients (≧60 years), ERα+/PR+ tumors, tamoxifen vs no adjuvant treatment) was “significantly longer disease free survival”; in experiment [5] (younger patients (<60 years)), “no significant effect”. Also, the “recurrence-free and overall survival” value in experiment [6] (high PR level, >75% nuclear fraction, irrespectively of ERα status) was “significantly correlated with an increased recurrence-free and overall survival”; in experiment [6] (lower PR level, <75%), “no positive effect”.

Source of the values: US20110003854A1, “BREAST CANCER TREATMENT AND TREATMENT PREDICTION” (priority 2007, published 2011).
